Data set [1] has as its system pepsin, pancreatin. As to the kind of experiment: Enzymatic stability in simulated fluids with pepsin or pancreatin. In kind it is in vitro ADME. To be noted: 37 °C, 2 h. On the procedure:
The effects of gastrointestinal digestion are important parameters to be taken into consideration in the determination of bioavailability and bioactivity of new compounds. In particular, the luminal instability, due to the pH or enzymatic degradation, may compromise the transmucosal transport of the prodrug designed for permeability enhancement. Therefore, in this study the chemical stability of compound 2 was assessed to exclude any undesirable degradation at acid and physiological environments. Hydrochloric acid buffer (pH 2.0) as a nonenzymatic simulated gastric fluid (SGF), and phosphate buffer (pH 7.4) as nonenzymatic simulated intestinal fluid (SIF) were employed to evaluate the chemical stability. […] For chemical stability, a 0.01 M hydrochloric acid buffer (pH 1.3) and 0.01 M phosphate buffer (pH 7.4) were used. To assess enzymatic stability, the same hydrochloric buffer with and without pepsin (10 or 40 mg/mL) and phosphate buffer with and without pancreatin (10 or 40 mg/mL) were used. […] The mixture was vortexed and centrifuged at 2 °C and 10 000 rpm, Swing‐out Rotor, for 10 min, and the content of tested compound in the supernatant was analyzed by HPLC. Experiments were run in triplicate and the mean values of the rate constants were calculated.

Data set [2] is described as follows: PAMPA-BBB assay. Set-up: Papp at 18 h: dose or concentration left out as unconfirmed. To be noted: porcine polar brain lipid, 18 h. On the procedure:
The relative passive transcellular diffusion of compounds, expressed as permeability coefficient (Pe), was determined with a permeability equation. ^[45] The permeabilities of 1, 2, and 1400 W were determined at pH 5.0, 6.5, and 7.4 to mimic the physiological conditions of the GI tract (Table 1). […] As the new prodrug was designed for the potential treatment of neurodegenerative diseases, an important parameter is its capability to cross the BBB.
PAMPA‐BBB assays were performed following the same procedure described above for PAMPA‐GI. Briefly, an artificial membrane consisting in a porcine polar brain lipid extract mixture (purchased from Avantis Polar Lipids, Alabaster, AL, USA) and an incubation time of 18 h were adopted as experimental conditions.

Data set [3] deals with T1, B5 and B5R (Homo sapiens, UniProt O43169+P00387).
T1 sequence (O43169 16-150): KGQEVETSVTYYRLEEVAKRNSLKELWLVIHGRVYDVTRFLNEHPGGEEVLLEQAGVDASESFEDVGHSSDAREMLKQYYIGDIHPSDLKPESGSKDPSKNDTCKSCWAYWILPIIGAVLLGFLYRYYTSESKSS
T1 sequence (P00387 24-301 limits assumed): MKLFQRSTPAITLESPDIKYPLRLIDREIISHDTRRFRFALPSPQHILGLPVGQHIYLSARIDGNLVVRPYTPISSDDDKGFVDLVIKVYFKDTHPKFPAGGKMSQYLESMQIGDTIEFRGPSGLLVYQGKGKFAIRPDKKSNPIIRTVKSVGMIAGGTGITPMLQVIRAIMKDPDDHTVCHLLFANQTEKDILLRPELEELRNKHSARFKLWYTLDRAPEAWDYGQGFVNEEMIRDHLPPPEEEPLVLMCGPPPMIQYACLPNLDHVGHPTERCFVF
As to the kind of experiment: Bioconversion control experiment without mARC. The class given is in vitro ADME. To be noted: B5 and B5R only, no mARC; NADH assay.

In the case of `C/C(=N\O)NC(c1ccccc1)c1ccccc1` [Compound 2, (1E)‐N‐(diphenylmethyl)‐N′‐hydroxyethanimidamide], the “enzymatic stability in SGF with pepsin” value in data set [1] (pH 1.3, pepsin 10 or 40 mg/mL) is “stable”. Further, the “enzymatic stability in SIF with pancreatin” value in data set [1] (pH 7.4, pancreatin 10 or 40 mg/mL) is on record as “stable”. The compound further returned a Papp at 18 h in data set [2] (pig, PAMPA, PAMPA-BBB permeability Pe) above 4 ×10⁻⁶ cm/s. Moreover, the PAMPA-BBB permeation class entry in data set [2] was “CNS+ (CNS+ (indicative of high BBB permeation): Pe >4.0)”. Further, the “conversion to the amidine 1 in control experiment” value in data set [3] is “no conversion”.

(Values after PMC7756445, “A Novel Prodrug of a nNOS Inhibitor with Improved Pharmacokinetic Potential” (Chemmedchem, 2020).)
